Assay results from patent US20160114050A1, “Heparosan/Therapeutic Prodrug Complexes and Methods of Making and Using Same” (The Board of Regents of the University of Oklahoma, priority 2014, published 2016).

How the values were obtained:
[1] = biological target: T1, mammalian heparanase (HEPase) (Homo sapiens, UniProt Q9Y251); conditions: cited from earlier work
T1 sequence (Q9Y251 158-543 limits assumed): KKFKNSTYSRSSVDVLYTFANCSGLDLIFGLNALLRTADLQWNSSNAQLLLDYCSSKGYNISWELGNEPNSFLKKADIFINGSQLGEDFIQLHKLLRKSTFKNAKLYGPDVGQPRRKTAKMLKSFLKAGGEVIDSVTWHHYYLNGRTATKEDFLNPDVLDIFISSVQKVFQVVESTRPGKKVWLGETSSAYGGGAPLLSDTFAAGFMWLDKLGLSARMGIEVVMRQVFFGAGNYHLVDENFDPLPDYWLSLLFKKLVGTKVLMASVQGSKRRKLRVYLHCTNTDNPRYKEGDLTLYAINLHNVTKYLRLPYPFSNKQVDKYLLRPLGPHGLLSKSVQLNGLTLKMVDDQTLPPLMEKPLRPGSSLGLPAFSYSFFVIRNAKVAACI
T1 sequence (Q9Y251 36-109 limits assumed): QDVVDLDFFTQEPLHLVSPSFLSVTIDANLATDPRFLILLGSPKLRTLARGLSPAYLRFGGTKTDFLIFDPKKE

[2] = tested on: anti-heparosan antibodies; test: ELISA serological test for anti-heparosan IgG/IgM antibodies after repeated immunization; assay type: in vivo; conditions: rat, multiple boosts over approximately seven months
From the text: FIG. 7 depicts the serological test results for potential induction of anti-heparosan antibodies against a heparosan-containing molecule (HEP-G-CSF, heparosan sugar polymer attached to the Granulocyte Colony Stimulating Factor (G-CSF) protein) in a rat model. A control pre-immune sera was collected, and then three animals (Rat #1, #2, and #3) were immunized and periodically boosted with HEP-G-CSF eight times over an approximately seven month period followed by periodic test bleeds. The various serum samples were tested in 96-well plates via ELISA. First, the wells of the plate were coated either with: (i) bovine serum albumin (BSA) to assess the background (‘Control’ shown in grey bars); or (ii) heparosan-BSA (HEP-BSA) conjugate (‘HEP’; shown in black bars), to measure any potential immune response. After blocking all the wells with BSA and washing thoroughly, 1 μl of the pre-immunization serum (the negative control Prebleed, ‘PreB’) or post-immunization serum (collected either on week 9 (Bleed #1; B#1), week 15 (B#2), or week 30 (B#3)) was incubated with wells (the rats had 3, 5, or 9 injections of test antigen, respectively, before these three bleeds). After washing the wells, the presence of any bound rat antibodies was determined by interaction with either an anti-rat IgG (Panel A) or an anti-rat lgM (Panel B) goat secondary antibody-horseradish peroxidase conjugate. […]

## Dermatan sulfate
[1]
  HEPase? substantially sensitive to cleavage by mammalian heparanase: No

B1: HEP-G-CSF (conjugate, UniProt P09919 31-207, looked up)
Granulocyte …: TPLGPASSLPQSFLLKCLEQVRKIQGDGAALQEKLVSECATYKLCHPEELVLLGHSLGIPWAPLSSCPSQALQLAGCLSQLHSGLFLYQGLLQALEGISPELGPTLDTLQLDVADFATTIWQQMEELGMAPALQPTQGAMPAFASAFQRRAGGVLVASHLQSFLEVSYRVLRHLAQP
modifications: heparosan polymer conjugate
[2]
  induction of specific anti-heparosan antibodies (IgG, IgM): no specific antibodies against heparosan were observed
